The text below walks through data of patent publication US10172868B2, “Substituted quinazolines for inhibiting kinase activity” (NeuPharma, Inc., priority 2013, dated 2019).

In assay [1] the target is EGFR (ErbB1) (Homo sapiens (Human), UniProt P00533). In words: Z'-LYTE kinase inhibition assay, EGFR. Type of assay: biochemical. As to conditions: read-out: % inhibition against EGFR (Compound at 0.041 μM). As to the method: Inhibitory activities of compounds against BTK, EGFR and EGFR mutants (EGFR L858R, EGFR T790M, EGFR L858R/T790M), FGFR1, FGFR2, JAK2, JAK3 and KDR were measured by Invitrogen using Z'-LYTE® Method as briefly described in the following. Test Compounds are screened in 1% DMSO (final) in the well. For 10 point titrations, 3-fold serial dilutions are conducted from the starting concentration. All ATP Solutions are diluted to a 4× working concentration in Kinase Buffer (50 mM HEPES pH 7.5, 0.01% BRIJ-35, 10 mM MgCl2, 1 mM EGTA). Peptide/Kinase Mixtures are diluted to a 2× working concentration in the appropriate Kinase Buffers as described below. (i) Peptide/Kinase Mixtures for Measurement of EGFR (ErbB1): The 2×EGFR (ErbB1)/[…] mixture is prepared in 50 mM HEPES pH 7.5, 0.01% BRIJ-35, 10 mM MgCl2. 4 mM MnCl2, 1 mM EGTA, 2 mM DTT. The final 10 μL Kinase Reaction consists of 1.1-5.25 ng EGFR (ErbB1) and 2 μM […] in 50 mM HEPES pH 7.5, 0.01% BRIJ-35, 10 mM MgCl2, 2 mM MnCl2. 1 mM EGTA, 1 mM DTT. After the 1 hour Kinase Reaction incubation, 5 μL of a 1:64 dilution of Development Reagent B is added. Reaction starts by 30-second shaking of mixture consisting of 2.5 μL 4× test compound, […] 2× kinase reaction mixture and 2.5 μL 4×ATP Solution on Bar-coded Corning, low volume NBS, black 384-well plate (Corning Cat. #3676). Then the mixture is incubated for 60-minute at room temperature for the kinase reaction, followed by addition of 5 μL of a 1:1024 dilution of development reagent A and 30-second plate shake. The mixture is then incubated for another 60-minute at room temperature for development reaction. Finally fluorescence is read by plate reader. To determine IC50 of a compound against EGFR, EGFR mutant and other kinases, a series of concentrations of the compound were tested for the inhibition.
Sequence of EGFR (ErbB1) (P00533 25-1210): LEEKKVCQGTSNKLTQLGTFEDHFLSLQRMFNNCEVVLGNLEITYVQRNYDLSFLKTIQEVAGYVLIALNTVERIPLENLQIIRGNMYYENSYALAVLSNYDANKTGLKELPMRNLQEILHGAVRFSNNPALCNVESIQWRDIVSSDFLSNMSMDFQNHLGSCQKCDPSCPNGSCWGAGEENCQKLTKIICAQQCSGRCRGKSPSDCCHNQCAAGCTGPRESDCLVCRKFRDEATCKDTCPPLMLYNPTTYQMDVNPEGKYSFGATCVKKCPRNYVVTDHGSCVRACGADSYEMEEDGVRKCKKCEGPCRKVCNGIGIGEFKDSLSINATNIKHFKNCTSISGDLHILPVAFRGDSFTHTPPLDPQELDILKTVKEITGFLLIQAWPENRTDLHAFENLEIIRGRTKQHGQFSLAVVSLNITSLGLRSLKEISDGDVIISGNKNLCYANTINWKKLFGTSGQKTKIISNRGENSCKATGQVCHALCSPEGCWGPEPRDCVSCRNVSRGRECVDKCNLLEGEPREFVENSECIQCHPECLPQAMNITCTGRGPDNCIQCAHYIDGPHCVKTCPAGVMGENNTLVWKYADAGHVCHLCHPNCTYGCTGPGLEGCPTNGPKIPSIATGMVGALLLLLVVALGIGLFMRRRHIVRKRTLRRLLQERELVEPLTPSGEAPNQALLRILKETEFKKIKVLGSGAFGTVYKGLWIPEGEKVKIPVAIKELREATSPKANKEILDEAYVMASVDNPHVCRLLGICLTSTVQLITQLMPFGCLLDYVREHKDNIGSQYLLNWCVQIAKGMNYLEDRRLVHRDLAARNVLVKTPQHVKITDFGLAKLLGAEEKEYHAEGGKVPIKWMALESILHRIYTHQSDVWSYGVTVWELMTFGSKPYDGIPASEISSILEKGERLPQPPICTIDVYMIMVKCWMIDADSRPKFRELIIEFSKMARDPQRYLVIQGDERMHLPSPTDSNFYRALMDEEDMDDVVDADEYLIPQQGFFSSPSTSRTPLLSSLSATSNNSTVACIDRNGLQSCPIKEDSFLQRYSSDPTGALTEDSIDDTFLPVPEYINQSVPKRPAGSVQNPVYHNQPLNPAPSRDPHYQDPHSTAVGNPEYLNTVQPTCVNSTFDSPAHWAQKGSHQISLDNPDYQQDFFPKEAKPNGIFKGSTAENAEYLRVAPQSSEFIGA

The test system of assay [2] is H1975 cells. In words: Inhibition of cancer cell growth, MTT assay, H1975. As to conditions: Homo sapiens, NCI-H1975, 72 h, read-out: IC50 in H1975 cells. For orientation: Tetrazolium dyes change colour on reduction, which living cells bring about.
In assay [3] the target is EGFR (ErbB1) T790M L858R (Homo sapiens (Human), UniProt P00533, L858R/T790M). In words: Z'-LYTE kinase inhibition assay, EGFR L858R/T790M. Type of assay: biochemical. As to conditions: for inhibition at 0.0137 µM: read-out: % inhibition against EGFR L858R/T790M (Compound at 0.0137 μM). As for the experimental part: Inhibitory activities of compounds against BTK, EGFR and EGFR mutants (EGFR L858R, EGFR T790M, EGFR L858R/T790M), FGFR1, FGFR2, JAK2, JAK3 and KDR were measured by Invitrogen using Z'-LYTE® Method as briefly described in the following. Test Compounds are screened in 1% DMSO (final) in the well. For 10 point titrations, 3-fold serial dilutions are conducted from the starting concentration. All ATP Solutions are diluted to a 4× working concentration in Kinase Buffer (50 mM HEPES pH 7.5, 0.01% BRIJ-35, 10 mM MgCl2, 1 mM EGTA). Peptide/Kinase Mixtures are diluted to a 2× working concentration in the appropriate Kinase Buffers as described below. (iv) Peptide/Kinase Mixtures for Measurement of EGFR (ErbB1) T790M L858R: The 2×EGFR (ErbB1) […] mixture is prepared in 50 mM HEPES pH 6.5, 0.01% BRIJ-35, 10 mM MgCl2, 1 mM EGTA, 0.02% NaN3. […] After the 1 hour Kinase Reaction incubation, 5 μL of a 1:64 dilution of Development Reagent B is added. Reaction starts by 30-second shaking of mixture consisting of 2.5 μL 4× test compound, […] 2× kinase reaction mixture and 2.5 μL 4×ATP Solution on Bar-coded Corning, low volume NBS, black 384-well plate (Corning Cat. #3676). Then the mixture is incubated for 60-minute at room temperature for the kinase reaction, followed by addition of 5 μL of a 1:1024 dilution of development reagent A and 30-second plate shake. The mixture is then incubated for another 60-minute at room temperature for development reaction. Finally fluorescence is read by plate reader. To determine IC50 of a compound against EGFR, EGFR mutant and other kinases, a series of concentrations of the compound were tested for the inhibition.
Sequence of EGFR (ErbB1) T790M L858R (P00533 25-1210 T790M/L858R): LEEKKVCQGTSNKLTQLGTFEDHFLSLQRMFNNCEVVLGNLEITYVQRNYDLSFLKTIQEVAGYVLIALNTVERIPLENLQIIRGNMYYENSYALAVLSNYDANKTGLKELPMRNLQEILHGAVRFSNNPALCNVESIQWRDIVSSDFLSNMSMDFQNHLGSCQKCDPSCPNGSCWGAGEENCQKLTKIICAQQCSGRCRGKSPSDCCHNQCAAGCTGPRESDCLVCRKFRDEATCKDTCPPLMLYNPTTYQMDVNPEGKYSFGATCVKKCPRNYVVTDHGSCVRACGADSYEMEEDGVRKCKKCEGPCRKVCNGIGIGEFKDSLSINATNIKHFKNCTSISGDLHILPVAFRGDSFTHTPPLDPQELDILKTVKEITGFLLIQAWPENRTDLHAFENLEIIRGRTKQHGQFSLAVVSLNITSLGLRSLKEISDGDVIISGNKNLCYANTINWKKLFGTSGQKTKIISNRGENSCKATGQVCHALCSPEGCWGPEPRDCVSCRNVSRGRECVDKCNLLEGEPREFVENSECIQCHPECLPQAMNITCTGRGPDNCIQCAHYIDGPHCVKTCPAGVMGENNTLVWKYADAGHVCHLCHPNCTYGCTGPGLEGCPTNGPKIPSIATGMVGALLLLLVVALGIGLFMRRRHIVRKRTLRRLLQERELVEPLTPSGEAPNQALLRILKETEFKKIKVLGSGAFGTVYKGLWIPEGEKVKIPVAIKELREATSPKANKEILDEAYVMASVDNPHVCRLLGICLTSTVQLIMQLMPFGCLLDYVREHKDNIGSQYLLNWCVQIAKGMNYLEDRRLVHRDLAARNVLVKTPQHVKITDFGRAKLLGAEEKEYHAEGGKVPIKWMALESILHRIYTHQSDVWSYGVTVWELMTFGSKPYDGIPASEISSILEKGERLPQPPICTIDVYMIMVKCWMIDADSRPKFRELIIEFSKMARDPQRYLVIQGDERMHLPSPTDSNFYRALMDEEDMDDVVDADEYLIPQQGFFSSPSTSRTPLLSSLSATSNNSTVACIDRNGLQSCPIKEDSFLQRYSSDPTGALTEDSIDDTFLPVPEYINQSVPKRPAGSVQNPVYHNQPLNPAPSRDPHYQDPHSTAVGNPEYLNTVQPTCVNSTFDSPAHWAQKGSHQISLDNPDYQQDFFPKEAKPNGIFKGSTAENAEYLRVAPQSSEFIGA

Take `C=CC(=O)N1CCC=C(c2cccc3cnc(Nc4ccc(N5CCN(C)CC5)cc4)nc23)C1` [Example C071, 1-(3-(2-((4-(4-methylpiperazin-1-yl)phenyl)amino)quinazolin-8-yl)-5,6-dihydropyridin-1(2H)-yl)prop-2-en-1-one]: in assay [1], the inhibition at 0.041 µM is under 50%. The IC50 in assay [2] was over 500 nM. In addition, the inhibition at 0.0137 µM in assay [3] was under 50%.

In the case of `CN(C)C/C=C/C(=O)Nc1cccc(-c2cccc3cnc(Nc4ccc(N5CCN(C)CC5)cc4)nc23)c1F` [Example C062, (E)-4-(dimethylamino)-N-(2-fluoro-3-(2-((4-(4-methylpiperazin-1-yl)phenyl)amino)quinazolin-8-yl)phenyl)but-2-enamide], in assay [1], the inhibition at 0.041 µM was over 50%. Also, the IC50 in assay [2] fell in the range of 100 to 500 nM. For the same compound, the inhibition at 0.0137 µM in assay [3] is over 50%.

With `C=CC(=O)Nc1cccc(-c2cccc3cnc(Nc4ccc(N5CCN(CC(C)(C)O)CC5)cc4F)nc23)c1` [Example C149, N-(3-(2-((2-fluoro-4-(4-(2-hydroxy-2-methylpropyl)piperazin-1-yl)phenyl)amino)quinazolin-8-yl)phenyl)acrylamide], in assay [1], the inhibition at 0.041 µM was under 50%. Moreover, in assay [2], the IC50 was under 100 nM. Further, in assay [3], the inhibition at 0.0137 µM is under 50%.

In the case of `C=CC(=O)Nc1cccc(-c2cccc3cnc(Nc4cc(F)c(N5CCN(C)CC5)cc4F)nc23)c1` [Example C160, N-(3-(2-((2,5-difluoro-4-(4-methylpiperazin-1-yl)phenyl)amino)quinazolin-8-yl)phenyl)acrylamide], the IC50 in assay [2] was 100 to 500 nM. The inhibition at 0.0137 µM in assay [3] is under 50%.

Take `C=CC(=O)Nc1cccc(-c2cccc3cnc(Nc4ccc(N5CCN(CC(N)=O)CC5)cc4)nc23)c1` [Example C150, N-(3-(2-((4-(4-(2-amino-2-oxoethyl)piperazin-1-yl)phenyl)amino)quinazolin-8-yl)phenyl)acrylamide]: the inhibition at 0.041 µM in assay [1] was under 50%. Further, the IC50 in assay [2] is under 100 nM. In assay [3], the inhibition at 0.0137 µM was under 50%.

With `C=CC(=O)Nc1cccc(-c2cccc3cnc(Nc4cnc(N5CCN(C)CC5)c(C#N)c4)nc23)c1` [Example C086, N-(3-(2-((5-cyano-6-(4-methylpiperazin-1-yl)pyridin-3-yl)amino)quinazolin-8-yl)phenyl)acrylamide], the inhibition at 0.041 µM in assay [1] is under 50%. In assay [2], the IC50 lay in the range of 100 to 500 nM. The inhibition at 0.0137 µM in assay [3] was over 50%.

For `C=CC(=O)Nc1cccc(-c2cccc3cnc(Nc4cc(F)c(N5CCN(CC(C)(C)O)CC5)cc4F)nc23)c1` [Example C163, N-(3-(2-((2,5-difluoro-4-(4-(2-hydroxy-2-methylpropyl)piperazin-1-yl)phenyl)amino)quinazolin-8-yl)phenyl)acrylamide], the IC50 in assay [2] lay in the range of 100 to 500 nM.

As for `C=CC(=O)Nc1cccc(-c2cccc3cnc(Nc4ccc(N5CCN(C)C(CO)C5)cc4)nc23)c1` (centres unmarked) [Example C077, N-(3-(2-((4-(3-(hydroxymethyl)-4-methylpiperazin-1-yl)phenyl)amino)quinazolin-8-yl)phenyl)acrylamide], in assay [1], the inhibition at 0.041 µM was under 50%. Also, the IC50 in assay [2] and in assay [3] (read-out: IC50 against EGFR L858R/T790M) was under 100 nM each time. Besides, the inhibition at 0.0137 µM in assay [3] is over 50%.

Turning to `C=CC(=O)Nc1cccc(-c2cccc3cnc(Nc4ccc(N5CCN(C)C(C(N)=O)C5)cc4)nc23)c1` (centres unmarked) [Example C093, 4-(4-((8-(3-acrylamidophenyl)quinazolin-2-yl)amino)phenyl)-1-methylpiperazine-2-carboxamide], the inhibition at 0.041 µM in assay [1] is under 50%. Further, in assay [2], the IC50 was in the range of 100 to 500 nM. Besides, the inhibition at 0.0137 µM in assay [3] is over 50%.

Regarding `C=CC(=O)Nc1cccc(-c2cccc3cnc(Nc4ccc(N5CCN(CCOC)CC5)c(F)c4)nc23)c1` [Example C155, N-(3-(2-((3-fluoro-4-(4-(2-methoxyethyl)piperazin-1-yl)phenyl)amino)quinazolin-8-yl)phenyl)acrylamide], the inhibition at 0.041 µM in assay [1] was under 50%. Further, the IC50 in assay [2] is under 100 nM. Moreover, the inhibition at 0.0137 µM in assay [3] is over 50%.

Turning to `C=CC(=O)Nc1cccc(-c2cccc3cnc(Nc4ccc(OC5CCN(CCO)CC5)cc4F)nc23)c1` [Example C144, N-(3-(2-((2-fluoro-4-((1-(2-hydroxyethyl)piperidin-4-yl)oxy)phenyl)amino)quinazolin-8-yl)phenyl)acrylamide], the inhibition at 0.041 µM in assay [1] is over 50%. The IC50 in assay [2] was under 100 nM. In assay [3], the inhibition at 0.0137 µM was over 50%.

Regarding `C=CC(=O)Nc1cccc(-c2cccc3cnc(Nc4ccc(N5CCN(CC(N)=O)CC5)c(F)c4)nc23)c1` [Example C164, N-(3-(2-((4-(4-(2-amino-2-oxoethyl)piperazin-1-yl)-3-fluorophenyl)amino)quinazolin-8-yl)phenyl)acrylamide], in assay [1], the inhibition at 0.041 µM was under 50%. The IC50 in assay [2] lay within 100 to 500 nM. The inhibition at 0.0137 µM in assay [3] is under 50%.

Turning to `C=CC(=O)Nc1cccc(-c2cccc3cnc(Nc4ccc(N[C@H]5CCN(C(C)=O)C5)cc4)nc23)c1` [Example C128, (S)-N-(3-(2-((4-((1-acetylpyrrolidin-3-yl)amino)phenyl)amino)quinazolin-8-yl)phenyl)acrylamide], the inhibition at 0.041 µM in assay [1] is under 50%. In addition, the IC50 in assay [2] is under 100 nM. Besides, in assay [3], the inhibition at 0.0137 µM is under 50%.

For the compound `C=CC(=O)Nc1cccc(-c2cccc3cnc(Nc4ccc(NCCF)cc4)nc23)c1` [Example C134, N-(3-(2-((4-((2-fluoroethyl)amino)phenyl)amino)quinazolin-8-yl)phenyl)acrylamide], the inhibition at 0.041 µM in assay [1] was under 50%. In addition, the IC50 in assay [2] was under 100 nM. In addition, in assay [3], the inhibition at 0.0137 µM was under 50%.

Consider `C=CC(=O)Nc1cccc(-c2cccc3cnc(Nc4ccc(-c5cn[nH]c5)cc4)nc23)c1` [Example C159, N-(3-(2-((4-(1H-pyrazol-4-yl)phenyl)amino)quinazolin-8-yl)phenyl)acrylamide], for which the IC50 in assay [2] is over 500 nM. The inhibition at 0.0137 µM in assay [3] was under 50%.

As for `C=CC(=O)Nc1cccc(-c2cccc3cnc(Nc4ccc(N5CCN(CCO)CC5)c(F)c4)nc23)c1` [Example C142, N-(3-(2-((3-fluoro-4-(4-(2-hydroxyethyl)piperazin-1-yl)phenyl)amino)quinazolin-8-yl)phenyl)acrylamide], the IC50 in assay [2] was under 100 nM.

Consider `C=CC(=O)Nc1cccc(-c2cccc3cnc(Nc4ccc(-n5cccn5)cc4)nc23)c1` [Example C158, N-(3-(2-((4-(1H-pyrazol-1-yl)phenyl)amino)quinazolin-8-yl)phenyl)acrylamide], for which the IC50 in assay [2] is 100 to 500 nM. Also, the inhibition at 0.0137 µM in assay [3] was under 50%.

As to `C=CC(=O)Nc1cccc(-c2cccc3cnc(Nc4ccc(OC5CCN(CCF)CC5)cc4F)nc23)c1` [Example C157, N-(3-(2-((2-fluoro-4-((1-(2-fluoroethyl)piperidin-4-yl)oxy)phenyl)amino)quinazolin-8-yl)phenyl)acrylamide], the IC50 in assay [2] is over 500 nM. Besides, the inhibition at 0.0137 µM in assay [3] was under 50%.
